Assay [1] addresses T1, human PRS protein (His-Avi-hEPRS (998-1512)) (Homo sapiens, UniProt P07814).
T1 construct: to construct His-Avi-hEPRS (998-1512) expression plasmid; His tag (N); Avi tag (N); TEV cleavage site (ENLYFQG, then S; inferred from the forward primer hEPRS-TEV-NheF) (N); made in house; host or cells: E. coli BL21(DE3)
T1 sequence (P07814 998-1512 limits assumed): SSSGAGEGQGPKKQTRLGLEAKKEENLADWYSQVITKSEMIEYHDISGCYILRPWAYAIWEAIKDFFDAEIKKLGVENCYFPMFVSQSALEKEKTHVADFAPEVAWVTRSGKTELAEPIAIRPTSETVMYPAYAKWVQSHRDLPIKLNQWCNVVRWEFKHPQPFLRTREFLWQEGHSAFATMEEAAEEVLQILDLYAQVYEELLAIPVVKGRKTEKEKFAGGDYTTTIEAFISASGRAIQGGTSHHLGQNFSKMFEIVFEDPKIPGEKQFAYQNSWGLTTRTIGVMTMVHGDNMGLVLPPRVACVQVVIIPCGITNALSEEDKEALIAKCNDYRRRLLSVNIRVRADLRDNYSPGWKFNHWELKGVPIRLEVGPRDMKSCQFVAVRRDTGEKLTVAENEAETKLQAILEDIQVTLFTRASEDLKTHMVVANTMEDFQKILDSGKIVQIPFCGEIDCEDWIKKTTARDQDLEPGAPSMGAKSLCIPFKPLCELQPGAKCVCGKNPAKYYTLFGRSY
As to the kind of experiment: PRS inhibitory activity ([32P]pyrophosphate exchange enzyme assay). Type of assay: biochemical. Particulars: 300 nM test compound; read-out: inhibitory rate (%) of PRS. Summed up:
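Compound was pre-incubated 60 min with 40 nM His-Avi-hEPRS (998-1512) (stock, E. coli-expressed) in Tris pH 7.5/KCl/DTT/Tween/MgCl2. Reaction began with substrate mix containing 300 μM ATP, 160 μM L-proline, 400 μM [32P]pyrophosphate (stock levels) and ran 30 min at room temperature. Charcoal-bound radioactivity was counted; inhibition was relative to no-reaction control.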

The test system of assay [2] is human ovarian cancer cells A2780. As to the kind of experiment: proliferation inhibitory activity against human ovarian cancer cell A2780 (CellTiter-Glo). In kind it is cell-based. As to conditions: A2780, 72 h, 1 μM test compound, 3 days of culture, read-out: proliferation inhibitory rate (%) of A2780 cells. Summed up:
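A2780 cells in RPMI-1640 with 10% FBS, compound added the day after seeding and cultured 3 days. Viability by CellTiter-Glo luminescence. Inhibition (%) calculated with cell-free wells as 100% inhibition.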

For assay [3], the system named is human fibrosarcoma cell line HT-1080. The assay is described as follows: antitumor action on mice transplanted with human fibrosarcoma cell line HT-1080. Particulars: HT-1080, 10 mg/kg orally, once per day, 11 days. Type of assay: in vivo, mouse. How it is done:
An antitumor action of the compound of the present invention on mice transplanted with human malignant melanoma cell line SKMEL-2 and human fibrosarcoma cell line HT-1080 was evaluated by the following method.
Human fibrosarcoma cell line HT-1080 was subcutaneously transplanted by injection into 7-week-old BALB/cA Jcl-nu/nu female mouse (CLEA Japan, Inc.) by 7.5×10^6 cells. At 8 days from transplantation, the tumor diameter of the engrafted tumor was measured and the tumor volume was calculated by the following formula. tumor volume=major axis×minor axis×minor axis×(½)
Individuals having a tumor volume of 100 to 300 mm^3 were selected for SKMEL-2, and individuals having a tumor volume of 200 to 400 mm^3 were selected for HT-1080, and 4 or 5 mice per group were used for the experiment. A 0.5% methylcellulose suspension of the test compound was orally administered to the mice at the dose (dose per administration), administration frequency and dosing period shown in Table 3. The tumor diameter was measured one day before the start of administration and one day after completion of administration and the tumor volume was calculated.
The tumor proliferation rate (T/C (%)) of the test compound administration group in comparison with the control administration group was calculated by the following formula. […]

Consider three compounds from patent publication US10774083B2, “Heterocyclic amide compound” (TAKEDA PHARMACEUTICAL COMPANY LIMITED, priority 2016, dated 2020).

For `Cn1cc(-c2cc(F)cc(CNC(=O)c3ncnc4nc(C5COCCO5)[nH]c34)c2)cn1` (stereo not shown) [Example 32, 8-(1,4-dioxan-2-yl)-N-(3-fluoro-5-(1-methyl-1H-pyrazol-4-yl)benzyl)-7H-purine-6-carboxamide], the inhibition at 0.3 µM in assay [1] was 101%. For the same compound, the inhibition at 1 µM in assay [2] came out at 76%. Also, in assay [3], the “T/C (%) tumor proliferation rate” value is -8.2%.

Regarding `Cn1ncc(-c2cc(F)cc(CNC(=O)c3ncnc4nc(C5CCCC5)[nH]c34)c2)n1` [Example 71, 8-cyclopentyl-N-(3-fluoro-5-(2-methyl-2H-1,2,3-triazol-4-yl)benzyl)-7H-purine-6-carboxamide], the inhibition at 0.3 µM in assay [1] came to 100%. For the same compound, in assay [2], the inhibition at 1 µM worked out at 70%.

For the compound `Cn1cc(-c2cc(C#N)cc(CNC(=O)c3ncnc4nc(C5CCCO5)n(C)c34)c2)cn1` (stereo not drawn) [Example 23, N-(3-cyano-5-(l-methyl-1H-pyrazol-4-yl)benzyl)-7-methyl-8-(tetrahydrofuran-2-yl)-7H-purine-6-carboxamide], in assay [1], the inhibition at 0.3 µM is 102%. In assay [2], the inhibition at 1 µM was determined as 69%.
